Read-outs that look alike come from different tables or passages of the source. Non-standard residues stand in square brackets, D forms with d. Residues, ends and D or L forms follow the SMILES beside them. No end group written: not given here. Orn = NCCC[C@H](N)C(=O)O
Key:
E. coli ATCC 25922 = assay: Serum bactericidal assay in 40% pooled normal human serum (magainin 2 with antibiotics); assay type: cell-based, Escherichia coli; conditions: for synergy of antibiotic with magainin 2: 1/32, 1/16, 1/8 MIC antibiotic, 200 μg/ml magainin 2, 40% pooled normal human serum
E. coli H16 [1] = assay: In vivo protection of neutropenic mice from lethal E. coli H16 infection (magainin 2, C-13 peptide, cefepime, amikacin); conditions: magainin 2 two injections 1 mg/mouse; amikacin two injections of 3 mg/kg
Method: The ability of magainin and cefepime combinations to protect mice from a lethal infection of E. coli was examined. Mice were made neutropenic by injection of Cytoxan and then challenged with E. coli. Mice were then divided into four different groups: (1) mice that were given no further treatment; (2) were given magainin 2 or C-13 peptide only; (3) were given cefepime only and (4) were given a combination of magainin 2 or C-13 peptide and cefepime. […] When amikacin, an aminoglycoside, was tested in similar experiments, no in vitro bactericidal activity or in vivo protection was found.
Mice were made neutropenic five days prior to bacterial challenge. Neutropenia was induced by subcutaneous injection of 250 mg/kg Cytoxan (cyclophosphamide). The mice were challenged with 2×10^4 E. coli H16. Challenge was by intraperitoneal injection. […] The survival of the mice was monitored for a period of at least 10 days

human red blood cells = assay: Hemolysis assay; assay type: cell-based
E. coli H16 [2] = assay: In vivo protection of neutropenic mice from systemic E. coli H16 infection (C-13 peptide analogs)
From the text: The ability of C-13 peptide analogs and cefepime combinations to protect mice from a lethal infection of E. coil was examined. Mice were made neutropenic by an injection of cyclophosphamide and then challenged with E. coli. Mice were then divided into four groups: (1) mice that were given PBS; (2) were given C-13 peptide analogs only; (3) were given cefepime only; and (4) were given a combination of C-13 peptide analogs and cefepime.
Male CrL:CF1 mice were made neutropenic five days prior to bacterial challenge. Neutropenia was induced by subcutaneous injection of 250 mg/kg Cytoxan (cyclophosphamide). The mice were challenged with either 2×10^4 E. coli H16 (Table 4) or 5×10^4 A645AP by intraperitoneal injection. Mice were divided into four treatment groups: (1) PBS; (2) C-13 peptide analog (15 mg/kg); (3) cefepime (0.1 mg/kg); (4) a combination treatment of cefepime and C-13 peptide analog (0.1 mg/kg cefepime and 15 mg/kg C-13 peptide analog) that were combined prior to injection. All injections were made in PBS (0.2 ml) and were administered intramuscularly with each injection in separate legs, one and 3.5 hours after bacterial challenge. The survival of the mice was monitored for ten days and the results analyzed by the Fisher Exact test.

[3] = tested on: endothelial cell proliferation; conditions: Maione et al., 1990; cited from earlier work
[4] = tested on: E. COLI A645 (ATCC 25922); assay: In vitro bactericidal activity (ID50) of cationic oligopeptides, serum bactericidal assay; assay type: cell-based, Escherichia coli
Method: Cells were diluted without washing to 5×10^4 cells/ml gelatin-veronel buffer (GBV++) and 0.05 ml was added to serum (see section 7.1.3.) in a 1.5 ml Eppendorf vial. For those bacterial cells pregrown in cefepime, the same amount of cefepime that was present during growth was added for both the preparation and examination of bactericidal activity. […] Peptides were diluted in deionized water to make a stock solution of 2 mg/ml and added to the reaction vial to give the appropriate concentration. The total reaction volume was 0.25 ml.

[5] = neutropenic mice, 2×10^4 E. coli H16 i.p., peptide 15 mg/kg, cefepime 0.1 mg/kg i.m. at one and 3.5 hours, ten days

NCC[C@H](O)C(=O)N[C@@H]1C[C@H](N)[C@@H](O[C@H]2O[C@H](CN)[C@@H](O)[C@H](O)[C@H]2O)[C@H](O)[C@H]1O[C@H]1O[C@H](CO)[C@@H](O)[C@H](N)[C@H]1O [amikacin]
synergy of antibiotic with magainin 2 (E. coli ATCC 25922): neither Amikacin, an aminoglycoside and ciproflaxacin, a quinoline were synergistic
mice survived (out of total), amikacin experiment (E. coli H16 [1]): three out of 10

CC(C)C[C@H](NC(=O)[C@H](C)N)C(=O)N[C@@H](Cc1ccc(O)cc1)C(=O)N[C@@H](CCCN)C(=O)N[C@@H](CCCN)C(=O)N[C@@H](CC(C)C)C(=O)N[C@@H](CC(C)C)C(=O)N[C@@H](CCCN)C(=O)N[C@@H](CCCN)C(=O)N[C@@H](CC(C)C)C(=O)N[C@@H](CC(C)C)C(=O)N[C@@H](CCCN)C(=O)N[C@@H](CO)C(=O)N[C@@H](C)C(=O)N[C@@H](CCCN)C(=O)N[C@@H](CCCN)C(=O)N[C@@H](CC(C)C)C(=O)NCC(=O)O [analog II, Ala--Leu--Tyr--Orn--Orn--Leu--Leu--Orn--Orn--Leu--Leu--Orn--Ser--Ala--Orn--Orn--Leu--Gly] (H-ALY[Orn][Orn]LL[Orn][Orn]LL[Orn]SA[Orn][Orn]LG-OH)
RBC LYSIS (%) (100 μG/ML) (human red blood cells): < 1%

CC(C)C[C@@H](NC(=O)[C@@H](C)N)C(=O)N[C@H](Cc1ccc(O)cc1)C(=O)N[C@H](CCCCN)C(=O)N[C@H](CCCCN)C(=O)N[C@H](CC(C)C)C(=O)N[C@H](CC(C)C)C(=O)N[C@H](CCCCN)C(=O)N[C@H](CCCCN)C(=O)N[C@H](CC(C)C)C(=O)N[C@H](CC(C)C)C(=O)N[C@H](CCCCN)C(=O)N[C@H](CO)C(=O)N[C@H](C)C(=O)N[C@H](CCCCN)C(=O)N[C@H](CCCCN)C(=O)N[C@H](CC(C)C)C(=O)NCC(=O)O [analog X, dAla--dLeu--dTyr--dLys--dLys--dLeu--dLeu--dLys--dLys--dLeu--dLeu--dLys--dSer--dAla--dLys--dLys--dLeu--Gly] (H-[dA][dL][dY][dK][dK][dL][dL][dK][dK][dL][dL][dK][dS][dA][dK][dK][dL]G-OH)
RBC LYSIS (%) (100 μG/ML) (human red blood cells): < 1%

C[C@H]1[C@H](NC(=O)/C(=N\OC(C)(C)C(=O)O)c2csc(N)n2)C(=O)N1S(=O)(=O)O [aztreonam]
synergy of antibiotic with magainin 2 (E. coli ATCC 25922): synergistic
mice survived (out of total), aztreonam experiment (E. coli H16 [2]; similar experiments with aztreonam): one out of 20

CC(C)(O/N=C(\C(=O)N[C@@H]1C(=O)N2C(C(=O)[O-])=C(C[n+]3ccccc3)CS[C@H]12)c1csc(N)n1)C(=O)O [ceftazidime]
synergy of antibiotic with magainin 2 (E. coli ATCC 25922): synergistic

O=C(O)c1cn(C2CC2)c2cc(N3CCNCC3)c(F)cc2c1=O [ciprofloxacin]
synergy of antibiotic with magainin 2 (E. coli ATCC 25922): neither Amikacin, an aminoglycoside and ciproflaxacin, a quinoline were synergistic

C[C@@H](O)[C@H]1C(=O)N2C(C(=O)O)=C(SCCN=CN)C[C@H]12 [imipenem]
synergy of antibiotic with magainin 2 (E. coli ATCC 25922): synergistic

AKKLAKLYKKLLKKLLKSAKKLG [analog J, Ala--Lys--Lys--Leu--Ala--Lys--Leu--Tyr--Lys--Lys--Leu--Leu--Lys--Lys--Leu--Leu--Lys--Ser--Ala--Lys--Lys--Leu--Gly]
RBC LYSIS (%) (100 μG/ML) (human red blood cells): 2.5%
change in the amount of RBC lysis (human red blood cells): increased the amount of RBC lysis

ALYKKIIKKLLESAKKLG [analog H, Ala--Leu--Tyr--Lys--Lys--Ile--Ile--Lys--Lys--Leu--Leu--Glu--Ser--Ala--Lys--Lys--Leu--Gly]
RBC LYSIS (%) (100 μG/ML) (human red blood cells): 1.5%

ALYKKLLKKLLESAKKLG [analog F, Ala--Leu--Tyr--Lys--Lys--Leu--Leu--Lys--Lys--Leu--Leu--Glu--Ser--Ala--Lys--Lys--Leu--Gly]
RBC LYSIS (%) (100 μG/ML) (human red blood cells): < 1%

ALYKKLLKKLLKFAKKFG [analog P, Ala--Leu--Tyr--Lys--Lys--Leu--Leu--Lys--Lys--Leu--Leu--Lys--Phe--Ala--Lys--Lys--Phe--Gly]
RBC LYSIS (%) (100 μG/ML) (human red blood cells): 21%

ALYKKLLKKLLKKAKKLG [analog KK, Ala--Leu--Tyr--Lys--Lys--Leu--Leu--Lys--Lys--Leu--Leu--Lys--Lys--Ala--Lys--Lys--Leu--Gly]
RBC LYSIS (%) (100 μG/ML) (human red blood cells): < 1%

ALYKKLLKKLLKSAKKLG [analog G, Ala--Leu--Tyr--Lys--Lys--Leu--Leu--Lys--Lys--Leu--Leu--Lys--Ser--Ala--Lys--Lys--Leu--Gly]
RBC LYSIS (%) (100 μG/ML) (human red blood cells): < 1%
change in the amount of RBC lysis (human red blood cells): no increase

ALYRRLLRRLLRSARRLG [analog HH, Ala--Leu--Tyr--Arg--Arg--Leu--Leu--Arg--Arg--Leu--Leu--Arg--Ser--Ala--Arg--Arg--Leu--Gly]
RBC LYSIS (%) (100 μG/ML) (human red blood cells): 3%

C-10: human platelet factor-4 peptide, amino acids 58-67 (PLYKKIIKKL; UniProt P02776 89-98, looked up, fragment)
inhibitory action compared with C-13 [3]: Little inhibitory action

C-11: human platelet factor-4 peptide, amino acids 58-68 (PLYKKIIKKLL; UniProt P02776 89-99, looked up, fragment)
inhibitory action compared with C-13 [3]: less inhibitory

C-12: human platelet factor-4 peptide, amino acids 58-69 (PLYKKIIKKLLE; UniProt P02776 89-100, looked up, fragment)
inhibitory action compared with C-13 [3]: less inhibitory

Cecropin
RBC LYSIS (%) (100 μG/ML) (human red blood cells; 100 μG/ML peptide, 37° C. for 45 minutes): < 1%
ID50 1/4 MIC CEFEPIME NHS ([4]; 1/4 MIC cefepime, NHS): .25 µg/mL
ID50 1/4 MIC CEFEPIME HI-NHS ([4]; 1/4 MIC cefepime, heat inactivated NHS): .5 µg/mL
ID50 NO CEFEPIME NHS ([4]; no cefepime, NHS): 1 µg/mL
ID50 NO CEFEPIME HI-NHS ([4]; no cefepime, heat inactivated NHS): 1 µg/mL
protection from systemic E. coli H16 infection (E. coli H16 [2]; Fisher Exact test): no significant increase in protection
% Survival (E. coli H16 [2]; [5]): 20%
Number--Survived/Total (E. coli H16 [2]; [5]): 2/20

KWKLYKKLLKKLLKSAKKLG [analog N, Lys--Trp--Lys--Leu--Tyr--Lys--Lys--Leu--Leu--Lys--Lys--Leu--Leu--Lys--Ser--Ala--Lys--Lys--Leu--Gly]
RBC LYSIS (%) (100 μG/ML) (human red blood cells): 7.5%

MGN 1: magainin 1, 23 amino acid cationic oligopeptide from skin secretions of Xenopus laevis (GIGKFLHSAGKFGKAFVGEIMKS; Magainin-1; UniProt P11006 37-59, looked up)
MGN killing of untreated bacteria (E. coli ATCC 25922; untreated bacteria, 40% PNHS): blocked the action

PLYKKIIKKLLES [C-13, Pro--Leu--Tyr--Lys--Lys--Ile--Ile--Lys--Lys--Leu--Leu--Glu--Ser]
RBC LYSIS (%) (100 μG/ML) (human red blood cells): < 1%
